# Results taken from the NIST ThermoML archive (doi:10.1016/j.tca.2014.05.022).
# Where “and” joins values, the source holds several entries; their conditions need not be identical. Equal entries are not always repeated. ± gives the expanded uncertainty stated by the source.
# Settings: DTA; for Normal melting temperature: Crystal
Triple point temperature (Crystal 1),Triple point temperature (Crystal 2),Normal melting temperature,Triple point temperature (Crystal 3),SMILES
297.8 ± 0.9 K and 297.4 ± 0.9 K,296.4 ± 0.9 K,24.7 ± 0.5 °C and 24.2 ± 0.5 °C,,CCCCCCCCCCCCO [dodecan-1-ol]
280.6 ± 0.9 K and 280.8 ± 0.9 K,280.2 ± 0.9 K and 279.9 ± 0.9 K,7.5 ± 0.5 °C,276.2 ± 0.9 K and 277.5 ± 0.9 K,CCCCCCCCCCO [decan-1-ol]
258.7 ± 0.9 K and 258.3 ± 0.9 K,255 ± 0.5 K and 256 ± 0.9 K,-14.4 ± 0.5 °C,,CCCCCCCCO [octan-1-ol]

# Second part, the molecule before the results:
SMILES,Triple point temperature (Crystal 1),Triple point temperature (Crystal 2),Normal melting temperature,Triple point temperature (Crystal 3)
CCCCCCCCCCCCCCO [1-tetradecanol],311.2 ± 0.9 K and 311.4 ± 0.9 K,310.2 ± 0.9 K and 310.4 ± 0.9 K,38.2 ± 0.5 °C,
CCCCCCCCCCCCCCCCCCO [1-octadecanol],331.6 ± 0.9 K,331 ± 0.9 K and 330.6 ± 0.9 K,58.5 ± 0.5 °C,
CCCCCCCCCCCCCCCCO [1-hexadecanol],323.3 ± 0.87 K and 323 ± 0.9 K,322.3 ± 0.9 K and 322.2 ± 0.9 K,50 ± 0.5 °C,
